The text below walks through data of PMC7961996, “Small Immunomodulatory Molecules as Potential Therapeutics in Experimental Murine Models of Acute Lung Injury (ALI)/Acute Respiratory Distress Syndrome (ARDS)” (International Journal of Molecular Sciences, 2021).

One experiment deals with LPS-induced ALI mice. Kind of experiment: LPS-induced ALI murine model. Type of experiment: in vivo, C57BL6/J mice. Here is the method:
(§1) For the mouse efficacy studies, both AVR-25 and AVR-48 were reconstituted in 0.9% sterile normal saline to give a final concentration of 10 mg/kg; 125 µL was administered intraperitoneally (IP) for hyperoxia- and LPS- induced lung injury, and IV via the lateral tail vein for CLP-induced lung injury. Imipenem (Primaxin®) was formulated in sterile 0.9% saline solution and administered subcutaneously (SC) at a dose of 5 mg/kg to mice in a 0.2 mL volume near the dorsal scapular region for CLP-induced lung injury study. LPS was dissolved in sterile 0.9% saline solution and 100 µL was administered intratracheally for the ALI study.
(§2) Three models of ALI were used in the current study: hyperoxia-, LPS-, and CLP-induced lung injury: LPS-induced ALI was induced by administering a one-time intratracheal instillation of LPS (100 µg in a volume of 100 µL). Animals were sacrificed after 24 h following LPS administration while two doses of AVR-25 and AVR-48 were administered (10 mg/kg, IP) at 4 h and 12 h following LPS dosing. Hyperoxia-induced ALI was initiated by keeping the mice in cages in airtight polypropylene chamber exposed to hyperoxia (100% oxygen) for 48 h, following a standard protocol. Two doses of AVR-25 and AVR-48 were administered (10 mg/kg, IP) at 4 h and 12 h following hyperoxia exposure, and mice were sacrificed after 48 h.
(§3) At the end of the experimental time points for all the above groups, the mice were euthanized with an overdose of a cocktail of xylazine (100 mg/kg)/ketamine (10 mg/kg, IP) and BALF and lung tissues were harvested for further analysis. Male mice were used for all the ALI experiments.
(§4) BALF was obtained from the anesthetized mice by cannulating the upper part of the trachea with a blunt 22-gauge needle and then by lavaging three times with 1.0 mL of cold PBS (pH 7.4). The fluid recovery rate was about 90%. Lavaged samples were kept on ice, and the BALF was centrifuged at 4 °C. Total cell counts in BALF were determined using the TC20 automated cell counter (Bio-Rad Laboratories, Inc., Hercules, CA, USA). The differential cell counts were performed on cytospin preparations after staining with the Hema 3 differential Staining kit (Fisher Scientific, Kalamazoo, MI, USA). Total protein concentration in the BALF was measured using the Pierce^TM BCA assay kit (Fisher Scientific Co, Houston, TX, USA), as previously described.
(§5) Lung endothelium permeability was determined by measuring the accumulation of Evans blue in the lungs, as previously described. In brief, Evans blue dye (EBD) solution (Sigma-Aldrich, Inc., St. Louis, MO, USA, 5 mg/mL) was injected into the tail vein at a concentration of 50 mg/kg before 30 min of the experimental time point. At the experimental time points, lungs were excised and weighed. EBD was extracted in 2 mL formamide kept in a water bath at 60 °C for 3 h, and the samples were centrifuged at 500 g for 10 min. The absorption of light at 595 nm was measured spectrophotometrically (Microplate reader, Bio-Rad Laboratories, Hercules, CA, USA) with the supernatants.
(§6) Interleukin (IL)-6, IL-1β, and IL-10 were quantified on BALF while E-selectin was quantified in lung homogenate using commercially available DuoSet® ELISA kits (R&D Systems, Minneapolis, MN, USA) according to the manufacturer’s instructions, as previously described. Briefly, Nalgene Nunc Maxisorp™ plates were coated overnight with antibodies to IL-6 (2 µg/mL), IL-1β (2 µg/mL) IL-10 (2 µg/mL), or E-selectin (2 µg/mL) and the following morning plates were washed and blocked for 2 h. Samples were added to the wells at various dilutions and then incubated with detection antibody for 2 h. Plates were subsequently washed, and streptavidin-HRP conjugate antibody was added to each well for 20 min. […]

Experiment [1] deals with hyperoxia-induced ALI mice. The experiment can be described thus: Hyperoxia-induced ALI murine model. It is filed as in vivo, C57BL6/J mice. Here is the method:
as §1, §2, §3, §4, §5, §6

The test system of the next experiment is hPBMC. Details: method as in earlier work. Particulars: cited from earlier work.
Where [2] appears, read: 10 mg/kg IP at 4 h and 12 h after LPS, 24 h, vs untreated ALI mice.
The mark [3] stands for this setting: 10 mg/kg IP x2, ELISA, vs non-treated ALI mice.
The mark [4] stands for this setting: 10 mg/kg IP at 4 h and 12 h of hyperoxia (100% oxygen), 48 h.

Consider `CC(=O)N[C@H]1[C@H](Oc2ccc([N+](=O)[O-])cc2)O[C@H](CO)[C@@H](O)[C@@H]1O` [AVR-48, N-((2S,3R,4R,5S,6R)-4,5-dihydroxy-6-(hydroxymethyl)-2-(4-nitrophenoxy)tetrahydro-2H-pyran-3-yl) acetamide], for which the “pro-inflammatory cytokines IL-1β and IL-6 levels in BALF and lung tissues” value with LPS-induced ALI mice (10 mg/kg IP at 4 h and 12 h after LPS, 24 h, ELISA, Western blot) is “decreased”. Also, in the experiment on LPS-induced ALI mice (setting [2]), the “neutrophil cell counts in BALF” value was “decreased counts” and the “total inflammatory cell counts in BALF” value is recorded as “decreased counts”. In the experiment with LPS-induced ALI mice (10 mg/kg IP x2), the “Evans Blue dye leak concentration in the lungs” value was “diminished levels”; the “expression of lung adhesion molecules ICAM-1, VCAM-1, and E-selectin in whole lung tissue” value is listed as “decreased expression”; the “total proteins in BALF (pulmonary edema)” value is on record as “diminished levels”. For the same molecule, the “lung injury score (H&E)” value in the experiment on LPS-induced ALI mice (10 mg/kg IP x2, 0-4 scoring, vs ALI mice without treatment) was “decreased lung injury scores”. Also, the “IL-10 levels in BALF” value in the experiment with LPS-induced ALI mice (setting [3]) was “further increase”. In the experiment on LPS-induced ALI mice (10 mg/kg IP x2, Western blot), the “expression of cleaved caspase-3 in lungs (lung cell death)” value is recorded as “reduced expression”; the “expression of endothelial AJ proteins VE-cadherin and β-catenin in whole lungs” value was “increased expression”. For the same molecule, in experiment [1] (setting [4]), the “neutrophils infiltration into the lung (BALF)” value is listed as “diminished” and the “total immune cells infiltration into the lung (BALF)” value is on record as “diminished”. Moreover, in experiment [1] (10 mg/kg IP x2), the “Evans Blue dye leak concentration in the lungs” value is “diminished levels”; the “expression of lung adhesion molecules ICAM-1, VCAM-1, and E-selectin in whole lung tissue” value is “decreased expression”; the “total proteins in BALF (pulmonary edema)” value is listed as “diminished levels”. Besides, in experiment [1] (10 mg/kg IP x2, 48 h, vs untreated ALI mice), the “levels of pro-inflammatory cytokines (IL-1β, IL-6) in BALF and lung tissues” value is recorded as “decreased levels”. In experiment [1] (10 mg/kg IP x2, 0-4 scoring), the “lung injury (H&E, injury score)” value is recorded as “improved lung injury”. For the same molecule, in experiment [1] (setting [3]), the “IL-10 levels in BALF” value is “further increase”. In experiment [1] (10 mg/kg IP x2, Western blot), the “expression of cleaved caspase-3 in lungs (lung cell death)” value is “reduced expression”; the “expression of endothelial AJ proteins VE-cadherin and β-catenin in whole lungs” value is “increased expression”; the “expression of phosphorylated-Src in whole lungs” value is listed as “decreased expression”. The TNF-α entry in the experiment with hPBMC (in vitro hPBMC model) was “decreases TNF-α”. Further, in the experiment on hPBMC (with or without LPS), the IL-10 expression entry is “increased IL-10 expression”.
